The values that follow come from article PMC6274262, “Synthesis of Novel Symmetrical 1,4-Disubstituted 1,2,3-Bistriazole Derivatives via ‘Click Chemistry’ and Their Biological Evaluation” (Molecules, 2016).

One assay has as its system S. cerevisiae RSKK 251. Description: Agar-well diffusion antimicrobial screening. Format: cell-based, Saccharomyces cerevisiae. (A growth-free zone around the sample is the usual read-out of agar diffusion tests.)
A further assay has as its system E. coli ATCC 35218. As to the kind of experiment: Agar-well diffusion antimicrobial screening. In kind it is cell-based. Conditions: Escherichia coli, ATCC35218, 18 h, read-out: Inhibition Zone Ec.
Another assay deals with B. cereus 709 Roma. Description: Agar-well diffusion antimicrobial screening. In kind it is cell-based. The conditions noted are these: Bacillus cereus, 50 μL of DMSO stock (concentration in c1) per 5 mm well, 18 h at 35 °C, standard ampicillin 10 μg, read-out: Inhibition Zone Bc.
Another assay relates to E. faecalis ATCC 29212. Description: Agar-well diffusion antimicrobial screening. In kind it is cell-based. Conditions: Enterococcus faecalis, ATCC29212; 50 μL of DMSO stock (concentration in c1) per 5 mm well, 18 h at 35 °C; standard ampicillin 10 μg; read-out: Inhibition Zone Ef.
Assay [1] has as its system Y. pseudotuberculosis ATCC 911. Description: microbe, parasite or virus in culture. In kind it is cell-based. Conditions: Yersinia pseudotuberculosis, ATCC911, 18 h, read-out: Inhibition Zone Yp.
For the next assay, the system named is P. aeruginosa ATCC 10145. As to the kind of experiment: Agar-well diffusion antimicrobial screening. Format: cell-based. Conditions: Pseudomonas aeruginosa, ATCC10145; 50 μL of DMSO stock (concentration in c1) per 5 mm well, 18 h at 35 °C; standard ampicillin 10 μg; read-out: Inhibition Zone Pa.
The next assay concerns S. aureus ATCC 25923. As to the kind of experiment: Agar-well diffusion antimicrobial screening. In kind it is cell-based. The conditions noted are these: Staphylococcus aureus, ATCC25923; 50 μL of DMSO stock (concentration in c1) per 5 mm well, 18 h at 35 °C; standard ampicillin 10 μg; read-out: Inhibition Zone Sa.
Assay [2] deals with T1, Electric eel acetyl-cholinesterase enzyme (AchE, Type-VI-S; EC 3.1.1.7) (Electrophorus electricus, UniProt O42275).
T1 construct: purchased Sigma-Aldrich Type-VI-S
As to the kind of experiment: biochemical. The conditions noted are these: mean ± S.D. of three independent experiments; Tris-HCl pH 8.00, 412 nm. As to the method:
Firstly, all of the compounds stock solution in DMF (1 × 10^−3 M) were prepared and then five different concentrations were prepared from stock solution in buffer (Tris-HCI pH 8.00) for experiments. Briefly 50 µL of 50 mM Tris-HCl buffer (pH 8.00), 125 µL of 3 mM DTNB (in buffer), 25 µL of 0.2 U/mL AChE and 25 µL of sample dissolved in buffer and incubated for 15 min. at 25 °C. Fifteen minutes later, 25 µL of 15 mM acetyl thiocholine iodide were added and incubated 5 min. at room temperature. The reaction was initiated by the addition of acetylcholine iodide. The hydrolysis of this substrate was monitored by the formation of the yellow 5-thio-2-nitrobenzoate anion as a result of the reaction DTNB with thiocholine, catalized by enzyme at a wave length of 412 nm using a 96-well microplate reader (Multiskan Go UV-spectrophotometer, Thermo Fisher Scientific Oy Ratastie 2, Vantaa, Finland).
Inhibition of AChE was calculated by the comparison of reaction rates of the samples relative to the blank sample (DMF in phosphate buffer pH = 8) using the Equation (1) where Acontrol is the activity of enzyme without test sample and Asample is the activity of enzyme with test sample: (1) Scavenging effects (%)=[(Acontrol−Asample)/Acontrol]×100
The experiments were carried out in triplicate and IC50 values were examined.

The nature of assay [3]: DPPH radical scavenging assay. The conditions noted are these: 0.1 mM methanolic DPPH, 30 min in the dark, 517 nm; mean ± S.D., triplicate. The procedure: Some 1,2,3-triazole compounds are known to act either as inhibitors of free radical production or as radical scavengers. Therefore, the potential antioxidant property of the new 1,2,3-trizole compounds was evaluated by determining their DPPH and SOD radical scavenging ability. DPPH is a stable free radical that accepts an electron or hydrogen radical to become a stable species. Due to its odd electron, DPPH gives a strong absorption band at 517 nm. Antioxidants are suitable reducing agents and neutralize the free radicals by pairing the DPPH odd electron with a hydrogen atom, and the DPPH solution turns yellow, observed as the decrease in absorbance at 517 nm.
The compounds were tested for in vitro antioxidant activities by the 2,2-diphenyl-1-picrylhydrazyl (DPPH) free radical scavenging assay method. The total volume of the assay mixtures containing methanolic DPPH solution (0.1 mM) and different concentrations of samples was 1 mL. After incubation in the dark at room temperature for 30 min., absorbance of the samples (Asample) was measured at 517 nm. Assay mixture without compound was used as control (control absorbance, Acontrol). All experiments were carried out in triplicate and results were expressed as the mean ±standard deviation (S.D.). Butylatedhydroxyanisole (BHA) were used as the reference compound. Free radical scavenging effect was calculated using Equation (1).
On the technique in general: Loss of DPPH colour is used to gauge radical scavenging.

A short description of assay [4]: Superoxide radical scavenging assay (NBT photo reduction method). Conditions: pH 7.8, 30 °C, 10 min, 560 nm, mean ± S.D., triplicate. As to the method: Superoxide scavenging activity of the compounds and reference were tested in a non-enzymatic superoxide radical (O2^−•) generation assay using a modified spectrophotometrical nitro blue tetrazolium (NBT) photo reduction method. The total volume of the assay mixtures containing riboflavin (2 μM), methionine (13 mM), NBT ([…]), EDTA (0.1 mM), and the test samples (50 mM phosphate buffer, pH = 7.8) was 1 mL. After illuminating with a fluorescent lamp at 30 °C for 10 min., the absorbance of the samples (Asample) was measured at 560 nm. Assay mixture without the compound was used as control (control absorbance, Acontrol). All experiments were carried out in triplicate and results were expressed as the mean ± standard deviation (S.D.). Free O2^−• radical scavenging effect was calculated using Equation (1).

The test system of another assay is C. albicans ATCC 60193. Description: Agar-well diffusion antimicrobial screening. In kind it is cell-based, Candida albicans.
A further assay has as its system M. smegmatis ATCC607. As to the kind of experiment: Agar-well diffusion antimicrobial screening. Format: cell-based, Mycobacterium smegmatis. Conditions: Mycolicibacterium smegmatis, ATCC607, 72 h; 50 μL of DMSO stock (concentration in c1) per 5 mm well, BHI agar, 3 days at 35 °C; standard streptomycin 10 µg; read-out: Inhibition Zone Ms.

T1 sequence (O42275 24-633): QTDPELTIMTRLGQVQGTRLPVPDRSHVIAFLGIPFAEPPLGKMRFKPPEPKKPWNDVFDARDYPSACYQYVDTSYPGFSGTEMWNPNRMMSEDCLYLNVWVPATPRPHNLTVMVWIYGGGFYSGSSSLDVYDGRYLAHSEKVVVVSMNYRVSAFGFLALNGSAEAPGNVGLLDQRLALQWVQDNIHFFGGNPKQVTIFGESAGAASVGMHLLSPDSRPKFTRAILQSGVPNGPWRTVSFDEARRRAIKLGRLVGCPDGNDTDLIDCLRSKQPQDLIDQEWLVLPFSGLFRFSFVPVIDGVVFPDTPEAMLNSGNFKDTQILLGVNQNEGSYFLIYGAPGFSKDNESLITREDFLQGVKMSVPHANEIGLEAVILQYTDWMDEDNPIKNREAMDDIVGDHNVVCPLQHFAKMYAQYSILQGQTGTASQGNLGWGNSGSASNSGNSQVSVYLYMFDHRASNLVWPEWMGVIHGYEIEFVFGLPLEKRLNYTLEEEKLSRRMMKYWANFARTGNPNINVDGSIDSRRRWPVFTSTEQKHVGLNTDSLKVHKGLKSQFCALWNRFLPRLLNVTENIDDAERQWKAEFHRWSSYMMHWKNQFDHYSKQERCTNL

With “4-((1-(10-(4-((4-Formyl-2-methoxyphenoxy)methyl)-1H-1,2,3-triazol-1-yl)decyl)-1H-1,2,3-triazol-4-yl)-methoxy)-2-methoxybenzaldehyde [Compound 5f]”, the “Inhibition Zone Sc” value in the assay on S. cerevisiae RSKK 251 is given as “-”.
With `CC1(C)S[C@@H]2[C@H](NC(=O)[C@H](N)c3ccccc3)C(=O)N2[C@H]1C(=O)O` [Amp, Ampicillin], the zone of inhibition at 10 µg/disc with E. coli ATCC 35218 is 10 mm; with B. cereus 709 Roma it was 15 mm; with E. faecalis ATCC 29212, 35 mm; in [1] it was 10 mm; in the assay on P. aeruginosa ATCC 10145, 18 mm; in the assay on S. aureus ATCC 25923, 10 mm.
For `COc1cc(C(C)=O)ccc1OCc1cn(CCCCCCn2cc(COc3ccc(C(C)=O)cc3OC)nn2)nn1` [Compound 3d, 1-(4-((1-(6-(4-((4-Acetyl-2-methoxyphenoxy)methyl)-1H-1,2,3-triazol-1-yl)hexyl)-1H-1,2,3-triazol-4-yl)-methoxy)-2-methoxyphenyl)ethan-1-onen], the IC50 (in general, the midpoint of a concentration-inhibition curve) in [2] stood at 75.7 µM. Besides, the “Inhibition Zone Sc” value in the assay with S. cerevisiae RSKK 251 is given as “-”. For the same compound, the “DPPH IC50” value in assay [3] was 149.21 (±0.06) µg/mL. Further, in assay [4], the “SOD IC50” value is on record as 128.24 (±0.10) µg/mL.
Regarding `O=Cc1ccc(OCc2cn(CCCCCCCCn3cc(COc4ccc(C=O)cc4)nn3)nn2)cc1` [Compound 4e, 4,4′-(((Octane-1,8-diylbis(1H-1,2,3-triazole-1,4-diyl))bis(methylene))bis(oxy))dibenzaldehyde], the IC50 in assay [2] came out at 63.4 µM. Moreover, in assay [3], the “DPPH IC50” value is listed as 192.04 (±0.09) µg/mL. For the same compound, the “Inhibition Zone Ca” value with C. albicans ATCC 60193 was 6 mm. Moreover, the “SOD IC50” value in assay [4] is given as 88.86 (±0.09) µg/mL.
As to `OC(Cn1cncn1)(Cn1cncn1)c1ccc(F)cc1F` [Flu., Fluconazole, reference compound], the zone of inhibition at 5 µg/disc in the assay with S. cerevisiae RSKK 251 (Saccharomyces cerevisiae, RSKK251, 50 μL of DMSO stock (concentration in c1) per 5 mm well, 18 h at 35 °C, standard fluconazole 5 μg, read-out: Inhibition Zone Sc) came to 25 mm; in the assay on C. albicans ATCC 60193 (Candida albicans, ATCC60193, 18 h, read-out: Inhibition Zone Ca), 25 mm.
For `[H]/N=C(/N)N[C@H]1[C@H](O)[C@@H](O)[C@H](O[C@@H]2O[C@@H](C)[C@](O)(C=O)[C@H]2O[C@@H]2O[C@@H](CO)[C@H](O)[C@@H](O)[C@@H]2NC)[C@@H](N/C(N)=N\[H])[C@@H]1O` [Strep, Streptomycin], the zone of inhibition at 10 µg/disc in the assay on M. smegmatis ATCC607 worked out at 35 mm.
